Measured values reported in ChEMBL document CHEMBL1136628, “Acylcyclohexanedione derivatives as potential in vivo sequential inhibitors of 4-hydroxyphenylpyruvate dioxygenase and GA(20) 3beta-hydroxylase” (Bioorg Med Chem Lett, 2003).

Target: 4-hydroxyphenylpyruvate dioxygenase (Sus scrofa, UniProt Q02110)
Test: In vitro inhibitory concentration required against 4-hydroxyphenylpyruvate dioxygenase (4-HPPD) taken from pig liver

Sequence of 4-hydroxyphenylpyruvate dioxygenase (Q02110 whole entry): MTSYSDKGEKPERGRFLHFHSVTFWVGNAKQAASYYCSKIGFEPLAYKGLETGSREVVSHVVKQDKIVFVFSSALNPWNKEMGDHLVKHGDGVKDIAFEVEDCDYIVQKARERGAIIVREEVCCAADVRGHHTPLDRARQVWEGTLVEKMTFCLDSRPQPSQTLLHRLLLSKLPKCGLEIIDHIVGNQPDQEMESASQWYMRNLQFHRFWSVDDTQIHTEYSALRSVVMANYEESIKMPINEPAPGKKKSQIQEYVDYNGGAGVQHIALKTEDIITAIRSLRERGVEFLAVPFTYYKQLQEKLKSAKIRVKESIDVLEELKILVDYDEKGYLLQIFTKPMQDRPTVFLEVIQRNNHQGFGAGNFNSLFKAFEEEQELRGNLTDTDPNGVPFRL

CCOC(=O)C1CC(=O)C(C(=O)C2CC2)=C(NC(=O)C2CC2)C1 (stereo unspecified)
IC50: 10 µM
